The test system of assay [1] is NZW mice. Nature of the assay: Degenerative glomerulopathy in NZW mice (histochemical studies of kidney). Type of assay: in vivo.
For assay [2], the system named is α3(IV)NC1-expressing cells (HEK293). Briefly: α3(IV)NC1 conformer production in cultured cells (Western blot of culture media). It counts as cell-based, human. The following applies: synthetic peptides 100-200 μM, organic compounds 5-50 μM, 24-48 h. (In general: In western blotting, separated proteins are transferred to a membrane and probed.)
For assay [3], the target named is T1, recombinant human GPBP (Homo sapiens, UniProt Q9Y5P4).
T1 sequence (Q9Y5P4 1-624): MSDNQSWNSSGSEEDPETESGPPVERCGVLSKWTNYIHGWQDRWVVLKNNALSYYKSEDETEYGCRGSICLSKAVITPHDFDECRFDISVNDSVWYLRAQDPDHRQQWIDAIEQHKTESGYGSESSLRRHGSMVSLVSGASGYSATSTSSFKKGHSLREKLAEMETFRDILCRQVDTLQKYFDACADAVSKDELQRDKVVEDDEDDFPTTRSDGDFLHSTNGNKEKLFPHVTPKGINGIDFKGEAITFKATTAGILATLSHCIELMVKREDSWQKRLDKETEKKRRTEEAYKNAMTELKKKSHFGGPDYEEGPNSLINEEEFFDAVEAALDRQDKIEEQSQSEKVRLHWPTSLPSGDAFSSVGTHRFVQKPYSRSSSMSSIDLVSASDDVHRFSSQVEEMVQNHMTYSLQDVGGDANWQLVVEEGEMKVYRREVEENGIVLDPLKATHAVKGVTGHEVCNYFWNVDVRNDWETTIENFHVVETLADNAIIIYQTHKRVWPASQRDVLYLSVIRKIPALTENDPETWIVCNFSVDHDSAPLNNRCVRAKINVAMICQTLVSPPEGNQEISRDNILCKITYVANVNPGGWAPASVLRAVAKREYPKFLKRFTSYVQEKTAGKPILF
Nature of the assay: In vitro phosphorylation: GPBP kinase activity / autophosphorylation. Particulars: for GPBP kinase activity in vitro (autophosphorylation): modulators at 200 μM, 10 min autophosphorylation reaction.

Assay [4] relates to C57BL/6 mice. Briefly: DAB-Am-4 treatment of control mice (genetic background control). Type of assay: in vivo. Particulars: C57BL/6 control mice. The procedure: Animal studies. NZW, male or female, 4-6 month-old were injected intraperitoneally either with 1 μg/g of body weight of DAB-Am-4 and/or with 20 μg/g of body weight of the Q2L or Q2D peptide. These products were administered in a volume of 500 μl of steril saline solution 3 times per week, at alternate days, during 12 consecutive weeks. Age-matched uninjected mice were used as controls. At the end of the experiment, mice were sacrificed and kidneys were fixed in 10% paraformaldehide and processed for pathological studies. Similar DAB-Am-4 treatment studies were performed on C57BL/6 animals for genetic background control.

Assay [5] deals with CaM kinase II. The following applies: known; cited from earlier work.
The target of assay [6] is T1, recombinant human GPBP. Briefly: Far Western blot with recombinant GPBP. Particulars: 1 μg peptide. Set-up: FLAG; made in house; host or cells: yeast. It counts as binding.
Assay [7] relates to CaM kinase II. Briefly: CaM kinase II inhibition. It counts as biochemical.
[8] abbreviates: NZW treated with DAB-Am-4 and peptide.

Entries after “also recorded” stand apart in the source; their conditions may differ. Ends that are not written are not given here.

For the molecule `NCCCN(CCCN)CCCCN(CCCN)CCCN` [DAB-Am-4, polypropylenimine tetraamine dendrimer, reference compound], in assay [1] (4-6 month-old NZW, 1 μg/g i.p. 3 times per week, 12 weeks), the “progression of the glomerulopathy” value is “acceleration of the degenerative process, resulting in premature glomerulosclerosis at 7-9 month of age”. The “morphological pattern of disease progression” value in assay [1] (NZW, DAB-Am-4 treatment) is “progression through Stages 3b and 4b”. Also, the “α3(IV)NC1 conformer production in cultured cells” value (“α3(IV)NC1 conformer production” below) in assay [2] was “potent activator”; in assay [2] (listed as DAB-Am4) it was “efficient increase in conformer production”. Besides, the “effect on GPBP autophosphorylation at decreasing concentrations” value in assay [3] (decreasing concentrations up to 10 μM) is “activation”. Further, the “GPBP kinase activity in vitro (autophosphorylation)” value (from here on “GPBP kinase activity in vitro”) in assay [3] is “potent activator; also recorded: caused induction”. Besides, the histological changes entry in assay [4] is “not observed histological changes of relevance”.

`COc1ccc(S(=O)(=O)N(CCO)c2ccccc2CN(C)CC=Cc2ccc(Cl)cc2)cc1` [KN93, 2-[N-(2-hydroxyethyl)-N-(4-methoxybenzenesulfonyl)]amino-N-(4-chlorocinnamyl)-N-methylbenzylamine]: the “relative inhibitory potency for CaM kinase II” value in assay [5] is “more potent inhibitor than KN62”. Further, in assay [2], the “α3(IV)NC1 conformer production” value is “reduced cell conformer production”. Moreover, the “GPBP kinase activity in vitro” value in assay [3] is reported as “efficiently impaired”.

Turning to “Ac-KGKPGDTGPPAAGAVMRGFVFT-NH2 [GPpep1bov]”, in assay [6], the “binding of GPBP to the peptide” value is “did not display binding capacity”.

As for “LATLSHCIELMVKR (not fully specified (N-terminus, C-terminus)) [Q2]”, in assay [1] (setting [8]), the “amyloid-like matter formation (thioflavin T or Congo red staining)” value is “efficiently inhibited amyloid-like matter formation”, the “fibrotic reaction in glomeruli” value was “glomeruli virtually devoid of fibrotic reaction” and the “fuchsinophilic material at the subendothelial space” value was “unable to reduce”. Also, the “material deposited in the glomerulus of suspected collagenous nature” value in assay [1] (NZW treated with DAB-Am-4 and peptide 20 μg/g i.p.) is “sharply reduced”. Further, in assay [7], the “inhibition of CaM kinase II” value was “efficiently inhibited”. The “α3(IV)NC1 conformer production” value in assay [2] is listed as “reduction in conformer production; also recorded: efficiently inhibits; also recorded: more effective inhibiting cell conformer production than Q4”. Further, the “synergistic inhibitory effect on GPBP kinase activity” value in assay [3] (combined with Ca^2+CaM) is “no cooperative inhibitory effect”. In addition, the “synergistic inhibitory effect on GPBP kinase activity” value in assay [3] (combined with KN62) is “no cooperative inhibitory effect”. Besides, the “GPBP kinase activity in vitro” value in assay [3] is given as “efficiently inhibited”.

Values taken from patent publication US7326768B2, “Goodpasture antigen-binding protein isoforms and protein misfolded-mediated disorders” (priority 2003, dated 2008).
